From US11266636B2, “Maleate salt of the free base of N-[5-(aminosulfonyl)-4-methyl-1,3-thiazol-2-yl]-N-methyl-2-[4-(2-pyridinyl)-phenyl]-acetamide, pharmaceutical formulations, methods of manufacture and uses thereof for the treatment of herpes viruses” (priority 2016, dated 2022)
≈ marks a conversion by molar mass, not a printed value.

Tests used:
[1] = Short-term stability in pharmaceutical excipients over two weeks (ambient temperature and 50° C.); assay type: physicochemical; details: for Stability in polyethylene glycol (in words): two weeks storage at 50° C.
Protocol: Additionally, the solubility of the free base of pritelivir and its aforementioned salts in water was determined and the resulting pH was measured. […] For detection, a diode-array detector was used. Absorption was recorded at a wavelength of 300 nm. All calculations were carried out with Microsoft Excel 2010. Mean data are given as arithmetic means. Recoveries were calculated in comparison to the measured start concentration (t0).

[2] = Photostability (xenon lamp, ca. 2000 Wh/m^2, 29 hours, >310 nm), solids and acidic solutions; assay type: physicochemical; details: 0.1 M hydrochloric acid/acetonitrile (75+25)
Protocol: The compounds were exposed as solids and dissolved in 0.1 M hydrochloric acid/acetonitrile (75+25, v+v) at a target concentration of 0.3 mg/mL. Corresponding dark control samples were prepared and placed in UV-light protected vials in the irradiation chamber to keep the ambient conditions equivalent. Additionally, untreated solids were dissolved and analyzed as reference samples. Two samples were prepared from each solid test item. Approximately 20 mg of each test item (corrected for free base) was weighed into quartz glass vials. A second aliquot was weighed into light protected glass vials (dark control). Both samples were placed inside the irradiation chamber. […] Two aliquots were prepared (irradiated and dark control sample). The dark control samples were stored inside the irradiation chamber in closed and light protected glass vials, while the photostressed solutions were stored in quartz flasks, equipped only with a loose quartz glass cover. During irradiation, the samples were partially evaporated due to heat production inside the irradiation chamber. The extent of evaporation was variable from sample to sample (the sulphate salt of pritelivir free base was almost completely evaporated). […] The samples (solutions and solid state) were irradiated with a xenon lamp at […] through a glass filter for 29 hours (total applied dose of UV-light ca. 2000 Wh/m^2). The instrument used was a Suntest CPS+ (Atlas). By the use of the glass filter, only wavelengths >310 nm were irradiated, leading to simulation of the ID65 standard (indoor indirect daylight standard). […] The recorded average chamber heat temperature was 38° C. […] The % peak area was determined for the pritelivir free base in all tested samples. […] Absorption was recorded at a wavelength of 280 nm. […] The degree of decomposition was determined by chromatographic separation of (UV-active) degradation products and by determination of the respective percentage of the total peak area (% total peak area) per chromatogram. As salts dissociate in solution, the peak area of the pritelivir free base was determined in all samples.

[3] = Solubility in water and resulting pH; assay type: physicochemical; details: for solubility at 22 h: water, thermodynamic from solid
Protocol: Additionally, the solubility of the free base of pritelivir and its aforementioned salts in water was determined and the resulting pH was measured.
For detection, a diode-array detector was used. Absorption was recorded at a wavelength of 300 nm.

[4] = Solubility determination in different pharmaceutical excipients at ambient temperature; details: for solubility at 22 h: thermodynamic from solid
Protocol: Dimethyl sulfoxide (DMSO) served as control solvent.
Suspensions were prepared by weighing the test items into glass vials and addition of the appropriate solvent. The suspensions were shortly vortex-mixed and shaken over-head for 22 hours. Aliquots (500 μL) were transferred to filtration devices with polyvinylidene fluoride membranes and the solid matter was separated by centrifugation. The filtrates were diluted (1:100) in acetonitrile/methanol/water/acetic acid (25+25+50+0.5, v+v+v+v).
Control solutions of all salts were prepared in DMSO at a concentration of 20 mg/mL and treated as described above. The solubility was determined by concentration measurement of the diluted filtrate of the oversaturated solutions.
Chromatographic separation was performed on a Phenomenex Luna C18(2), 5 μm column (150×2 mm) by gradient elution using 1% acetic acid and acetonitrile/methanol (1+1, v+v) containing 1% acetic acid. For detection, a diode-array detector was used. Absorption was recorded at a wavelength of 300 nm. A detailed method description was filed in the raw data folder.

[5] = Relative solubility in simulated gastric and intestinal fluids (FaSSGF, FaSSIF, FeSSIF); assay type: physicochemical; details: 2 hours; for Relative solubility in FaSSIF: fasted state simulated intestinal fluid, pH 6.5, 37° C.; for Relative solubility in FeSSIF: fed state simulated intestinal fluid, pH 5, 37° C.
Protocol: The pH was adjusted to 6.5 by addition of 1 N hydrochloric acid.
The pH was adjusted to 5 by addition of 1 N hydrochloric acid.
Suspensions of the mono ethane sulfonate salt, the maleate salt, the mono benzene sulfonate salt, the hemi ethane-1,2-disulfonate, the mesylate salt or the pritelivir free base were prepared as triplicates by weighing approximately 12 mg test item and addition of 600 μL FaSSGF, FaSSIF or FeSSIF (final concentration 20 mg/mL). The suspensions were incubated at 37° C. Aliquots (100 μL) were transferred into centrifugation devices (polyvinylidene difluoride membrane, 0.2 μm) for removal of solid matter (10 minutes at approximately 15000×g and 37° C.) after 0, 0.5, 1 and 2 hours. FaSSGF filtrates were diluted in acetonitrile to a final dilution of 1:1000. FaSSIF filtrates were diluted in acetonitrile to a final dilution of 1:50 and FeSSIF filtrates to a final dilution of 1:100.
The samples were analyzed for their content of the free base of pritelivir. […] As hydrolysis products were not determined only relative solubility was used for further evaluations of the results.

HSV-2 = details: once daily suppressive therapy; cited from earlier work
herpes simplex virus-2 = details: comparison of literature values; cited from earlier work
[6] = 30% Captisol, aqueous with cosolvent or surfactant or cyclodextrin, Solubility in 30% Captisol, ambient temperature, 22 hours shaking
[7] = 30% hydroxypropyl-β-cyclodextrin (HP-beta CD), aqueous with cosolvent or surfactant or cyclodextrin, Solubility in 30% HP-beta CD, 30% Hydroxypropyl-β-cyclodextrin, ambient temperature
[8] = polyethylene glycol (PEG 400), organic solvent or mixture, Solubility in polyethylene glycol (PEG 400), PEG 400, ambient temperature
[9] = propylene glycol, organic solvent or mixture, Solubility in propylene glycol (PG), ambient temperature

Cc1nc(N(C)C(=O)Cc2ccc(-c3ccccn3)cc2)sc1S(N)(=O)=O.O=S(=O)(O)O [sulfate salt, N-methyl-N-(4-methyl-5-sulfamoylthiazol-2-yl)-2-(4-(pyridin-2-yl)phenyl)acetamide Sulfate]
Stability in polyethylene glycol (in words) [1]: showed stability | % total peak area of the free base of pritelivir, dark control samples of the acidic solutions [2]: 95.7% | solubility at 22 h [3]: 175 to 606 µg/mL | solubility at 22 h ([4]; organic solvent or mixture): 12500 µg/mL

Cc1nc(N(C)C(=O)Cc2ccc(-c3ccccn3)cc2)sc1S(N)(=O)=O.O=S(=O)(O)c1ccccc1 [mono benzene sulfonate salt, N-methyl-N-(4-methyl-5-sulfamoylthiazol-2-VI)-2-(4-(pyridin-2-yl)phenyl)acetamide benzenesulfonate]
Stability in polyethylene glycol (in words) [1]: showed stability | Relative solubility in FaSSIF [5]: essentially similar concentrations | Relative solubility in FeSSIF [5]: essentially similar concentrations

CC(C)[C@H](N)C(=O)OCCOCn1cnc2c(=O)[nH]c(N)nc21 [valacyclovir]
Risk of transmission of genital herpes (HSV-2): significantly reduces the risk of transmission

Cc1nc(N(C)C(=O)Cc2ccc(-c3ccccn3)cc2)sc1S(N)(=O)=O.O=C(O)/C=C\C(=O)O [maleate salt, maleate salt of the free base of N-[5-(amino-sulfonyl)-4-methyl-1,3-thiazol-2-yl]-N-methyl-2-[4-(2-pyridinyl)phenyl]acetamide]
% total peak area of the free base of pritelivir, irradiated solutions ([2]; 29 hours, total dose 2000 Wh/m^2): 71.5% | Solubility in water [3]: 480 µg/mL | solubility at 22 h [4, 6]: 24500 µg/mL | solubility at 22 h [4, 7]: 24100 µg/mL | solubility at 22 h ([4]; ethanol, organic solvent or mixture, Solubility in ethanol, ambient temperature): 439 µg/mL | solubility at 22 h [4, 8]: 32200 µg/mL | Solubility in propylene glycol (PG) ([4]; propylene glycol, ambient temperature, listed as Maleate Salt of Free Base Pritelivir): 5230 µg/mL | solubility at 22 h [4, 9]: 5000 to 6000 µg/mL | Relative solubility in FaSSIF [5]: essentially similar concentrations | Relative solubility in FeSSIF [5]: essentially similar concentrations

CCS(=O)(=O)O.Cc1nc(N(C)C(=O)Cc2ccc(-c3ccccn3)cc2)sc1S(N)(=O)=O [mono ethane sulfonate salt, N-methyl-N-(4-methyl-5-sulfamoylthiazol-2-yl)-2-(4-(pyridin-2-yl)phenyl)acetamide ethanesulfonate]
solubility at 22 h [3]: 175 to 606 µg/mL | solubility at 22 h [4, 9]: 5000 to 6000 µg/mL | Relative solubility in FaSSGF ([5]; fasted state simulated gastric fluid, pH 1.6, 37° C.): highest relative solubility | Relative solubility in FaSSIF [5]: highest relative solubility | Relative solubility in FeSSIF [5]: highest relative solubility

C[C@H](Cn1cnc2c(N)ncnc21)OCP(=O)(O)O [Tenofovir]
IC50-values compared to the maleate salt (herpes simplex virus-2): significantly higher

Cc1nc(N(C)C(=O)Cc2ccc(-c3ccccn3)cc2)sc1S(N)(=O)=O [free base of pritelivir, N-[5-(aminosulfonyl)-4-methyl-1,3-thiazol-2-yl]-N-methyl-2-[4-(2-pyridinyl)-phenyl]-acetamide]
Stability in ethanol, PEG and propylene glycol ([1]; two weeks, ambient temperature): slight decrease | solubility at 22 h [3]: 1.3 µg/mL (≈ 0.00323 mM) | solubility at 22 h [4, 6]: 1790 µg/mL (≈ 4.45 mM) | solubility at 22 h [4, 7]: 1910 µg/mL (≈ 4.75 mM) | solubility at 22 h [4, 8]: 89600 µg/mL (≈ 223 mM)

N-methyl-N-(4-methyl-5-sulfamoylthiazol-2-yl)-2-(4-(pyridin-2-yl)phenyl)acetamide hemiethane-1,2-disulphonate [hemi ethane-1,2-disulfonate salt]
% total peak area of the free base of pritelivir, dark control samples of the acidic solutions [2]: 94.7%
